In patent US10054581B1, “Inhibitors of notch signaling pathway and use thereof in treatment of cancers” (Ecole Polytechnique Federale de Lausanne (EPFL), priority 2011, dated 2018):
Entries after “also recorded” stand apart in the source; their conditions may differ.

How the values were obtained:
[1] = test system: active form of Notch1 (NICD); experiment: NICD Western blot (VAL1744) in DL4:N1 HeLa coculture; assay type: cell-based, human; conditions: DL4- and N1-HeLa coculture, DAPT 10 μM, 24 hours
Experimental: Cells were lysed in RIPA buffer (50 mM Tris.Cl, pH 7.5, 150 mM NaCl, 1% nonidet P-40, 0.5% sodium deoxycholate and 0.1% SDS) for 30 minutes at 4° C. Lysed cells were centrifuged to remove the debris at 14000 rpm at 4° C. Supernatant was transferred to a new eppendorf tube. The protein concentration was determined by Bradford assay using spectrophotometer (Ultrospec 3000 pro). 40 μg of protein were denatured in 1×SDS gel loading buffer (100 mM Tris.Cl, pH 6.8, 200 mM DTT, 4% SDS, 0.2% bromophenol, 20% glycerol) by heating at 99° C. for 5 minutes. Denatured protein samples were stored on ice until loading on to the acrylamide gel. The samples were run on 8% or 10% acrylamide gel in Tris-glycine electrophoresis buffer (25 mM Tris, 250 mM glycine, 0.1% SDS). […]
For immunoblotting, membranes were blocked with 5% milk and incubated overnight with primary antibodies at 4° C. […] Signal was detected with Super Signal West chemiluminescent substrate (Thermo Scientific, catalog number 34077).
To assess the Notch pathway activation potential of the stable cell lines, DL4 and N1 stable HeLa cells (DL4-HeLa and N1-HeLa, respectively) were cocultured in 1:1 ratio in a 6-well plate and grown to confluency. […] On the other hand, in the absence of ligand (DL4-HeLa cells) or in the presence of GSI (DAPT) NICD levels were not detected, indicating a loss of Notch signalling (data not shown). […]

HPB ALL = experiment: Annexin V apoptosis, HPB ALL; assay type: cell-based, human; conditions: 10 μM, 7 days
Experimental: FIGS. 6A-6D show 6-(4-Tert-Butylphenoxy)Pyridin-3-Amine (I3) induces G0/G1 cell cycle arrest and apoptosis in human T cell acute lymphoblastic leukemia cell lines and human breast cancer cell line HCC1187. […] Percentage of Annexin V positive (apoptotic) cell population was measured using flow cytometry.
To quantitate the percentage of apoptotic cells, AnnexinV and 7AAD staining was performed. Thymic cells were suspended in 300 μl of 1× AnnexinV binding buffer (BD Biosciences, San Diego, USA) and incubated with 10 μl of AnnexinV-Cy5 antibody and 10 μl of 7AAD (BD Biosciences, San Diego, USA). Samples were incubated for 15 minutes at room temperature. FACS was performed with in one hour of antibody staining.
This 6-(4-Tert-Butylphenoxy)Pyridin-3-Amine (I3) mediated proliferative arrest could be due to induction of apoptosis or cell cycle arrest during different phases of cell cycle. […] Therefore to further elucidate the mechanisms responsible for 6-(4-Tert-Butylphenoxy)Pyridin-3-Amine (I3) mediated proliferative arrest cell cycle and apoptosis analyses were carried out. […] To investigate cell death, Annexin V staining was performed and proportion of apoptotic (AnnexinV positive) cell population was determined by flow cytometry analyses after 7 days of treatment.

[2] = test system: Notch2-intracellular domain (N2-ICD); experiment: N2-ICD mediated pathway activation, luciferase reporter; assay type: cell-based
HPB ALL leukemic cells = experiment: HPB ALL xenotransplantation in NOD/SCID γc−/− mice; assay type: in vivo, human; conditions: 25 mg/kg daily from around day 15, imaged day 27
Experimental: FIGS. 8A-8B show 6-(4-Tert-Butylphenoxy)Pyridin-3-Amine (I3) treatment increases latency of leukemia development in mice. […] On day 15, leukemic cells were established in the bone marrow. Mice were treated with oil or 6-(4-Tert-Butylphenoxy)Pyridin-3-Amine (I3) for every day. Mice were imaged on day 27 using Caliper IVIS (Xenogen) live imaging system. Red and blue colour indicates the intensity of luciferase signal and correlates with the number of leukemic cells. […] NOD/SCID γc^−/− mice were transplanted with 5×10^5 RPMI 8402 (luciferase expressing) cells. Leukemia development was followed using Caliper IVIS (Xenogen) live imaging system. On day […], a daily treatment was started using oil (n=3) or 6-(4-Tert-Butylphenoxy)Pyridin-3-Amine (I3) (n=4). Animals were treated for 27 days (end point of the experiment).
The human leukemic cell lines RPMI 8402 and HPB ALL were transduced with a lentivirus containing luciferase gene constitutively expressed downstream of a CMV promoter. […] Mice were monitored for tumor development using Caliper IVIS (Xenogen) live imaging system. […]
This allowed Applicants to visualize and monitor the leukemia progression in the mice using the Caliper IVIS (Xenogen) live imaging detection system. […] Mice were monitored for leukemia development by detecting luciferase expressing leukemic cells. […]

| Compound | NICD levels (Western blot) [1] | apoptosis (Annexin V positive cells) (HPB ALL) | pathway activation by N2-ICD [2] | leukemia progression (luciferase live imaging) (HPB ALL leukemic cells) |
| --- | --- | --- | --- | --- |
| C[C@H](NC(=O)Cc1cc(F)cc(F)c1)C(=O)N[C@H](C(=O)OC(C)(C)C)c1ccccc1 [DAPT, N—[N-(3,5-difluorophenacetyl-Lalanyl)]-(S)-phenylglycine t-butyl ester, reference compound] | can be blocked by DAPT treatment |  |  |  |
| CC(C)(C)c1ccc(Oc2ccc(N)cn2)cc1 [I3, 6-(4-Tert-Butylphenoxy)Pyridin-3-Amine] |  | induces significant apoptosis | could also block pathway activation by Notch1-intracellular domain (NICD) and Notch2-intracellular domain (N2-ICD); also recorded: inhibits pathway activation via intracellular domains of Notch1 (NICD) and Notch2 (N2-ICD) | did not progress at the same rate as in the oil treated group |
